The nature of assay [1]: inhibitors of intracellular T. cruzi replication, confirmation, NIH3T3 host cells, beta-gal luminescence (AID 2044).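 Also: intracellular parasites grown in NIH/3T3 mouse fibroblasts as host cells; luminescent beta-galactosidase reporter signal from transgenic T. cruzi replicating inside host cells; inhibitors lower the luminescence signal.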 The assay is classed as functional, cell-based.
A short description of assay [2]: cytotoxicity toward NIH3T3 fibroblasts, dose response, counter-screen, cell-based, ATP luminescence, mouse fibroblasts (AID 2010).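 Also: cells exposed to compound for about 90 hours before reading.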 In kind it is functional. (A counterscreen serves to expose hits that act by an unwanted route or on another target.)
A further assay relates to Vero. Kind of assay: cells. In kind it is functional. The note with it: Chlorocebus sabaeus.
In assay [3] the target is T1, DNA repair and recombination protein RAD54-like (Homo sapiens, UniProt Q92698).
T1 sequence (Q92698 whole entry): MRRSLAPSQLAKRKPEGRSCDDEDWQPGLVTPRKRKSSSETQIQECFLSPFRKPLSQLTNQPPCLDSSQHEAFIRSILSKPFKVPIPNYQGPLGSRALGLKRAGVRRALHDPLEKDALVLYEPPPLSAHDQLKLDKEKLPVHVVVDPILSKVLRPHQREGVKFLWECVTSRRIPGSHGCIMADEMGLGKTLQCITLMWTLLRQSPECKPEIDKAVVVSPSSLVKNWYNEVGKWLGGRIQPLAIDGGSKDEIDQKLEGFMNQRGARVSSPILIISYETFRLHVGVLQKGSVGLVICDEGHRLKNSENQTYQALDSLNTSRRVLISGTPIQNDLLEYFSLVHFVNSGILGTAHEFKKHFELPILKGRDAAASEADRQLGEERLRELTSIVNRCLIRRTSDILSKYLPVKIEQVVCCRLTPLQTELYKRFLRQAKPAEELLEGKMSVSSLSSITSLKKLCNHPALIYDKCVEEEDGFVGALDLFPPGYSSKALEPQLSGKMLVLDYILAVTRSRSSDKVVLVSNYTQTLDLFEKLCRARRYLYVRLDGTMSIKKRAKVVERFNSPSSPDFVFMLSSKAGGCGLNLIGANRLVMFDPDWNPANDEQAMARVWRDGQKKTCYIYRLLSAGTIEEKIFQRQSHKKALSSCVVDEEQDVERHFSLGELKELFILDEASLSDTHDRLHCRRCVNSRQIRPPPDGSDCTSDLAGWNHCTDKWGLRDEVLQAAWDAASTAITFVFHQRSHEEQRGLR
Description: inhibitors of human RAD54 branch migration, confirmation, biochemical, fluorescence, cherry-picked samples, dose series (AID 651657). In kind it is functional.

Assay [4] deals with T2, DNA repair protein RAD52 homolog (Homo sapiens, UniProt P43351).
T2 sequence (P43351 whole entry): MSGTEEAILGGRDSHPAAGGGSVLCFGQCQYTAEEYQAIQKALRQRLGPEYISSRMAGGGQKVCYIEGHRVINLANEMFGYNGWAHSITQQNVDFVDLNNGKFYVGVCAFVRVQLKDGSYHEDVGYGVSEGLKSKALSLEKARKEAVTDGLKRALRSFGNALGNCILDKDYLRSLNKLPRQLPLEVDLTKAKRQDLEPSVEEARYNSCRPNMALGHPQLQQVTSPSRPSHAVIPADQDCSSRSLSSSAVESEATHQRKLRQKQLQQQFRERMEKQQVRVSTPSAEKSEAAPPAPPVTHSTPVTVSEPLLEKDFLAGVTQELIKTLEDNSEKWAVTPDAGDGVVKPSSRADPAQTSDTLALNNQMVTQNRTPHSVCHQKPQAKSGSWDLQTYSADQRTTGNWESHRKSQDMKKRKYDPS
In kind it is functional, biochemical.

Assay [5] is described as follows: P. falciparum 3D7-ScDHODH growth inhibitors, dose response, SYBR Green, dry powder samples (AID 1159570).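 Also: parasite growth measured after 72 hours of compound exposure.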 The assay is classed as functional, cell-based.
Assay [6] in a line: P. falciparum Dd2 growth inhibitors, dose response, SYBR Green, cherry-picked samples (AID 1159567). The assay is classed as functional, cell-based.
Assay [7] in a line: P. falciparum Dd2 growth inhibitors, dose response, SYBR Green, dry powder samples (AID 1159566).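 Also: potency for growth inhibition with lower SYBR green DNA signal.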 The assay is classed as functional, cell-based.
A short description of assay [8]: P. falciparum ATP4 D1247Y mutant growth inhibitors, dose response, NITD609-resistant line, SYBR Green, dry powder (AID 1159571).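 Also: parasites synchronized at ring stage by sorbitol before testing.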 In kind it is functional, cell-based.
Assay [9] is described as follows: HepG2 cell cytotoxicity, dose response, cytotoxicity control, cherry-picked samples (AID 1159577). The assay is classed as functional, cell-based.

Active and inactive are the calls of the source. A value given as a limit tells only on which side of the number the result lay.

Broadly, the EC50 is the midpoint of the concentration-response curve. What is called CC50 is the concentration giving 50% cytotoxicity. What is called AC50 is the concentration at which the activity in the assay is half-maximal. Consider `CN(C)CCCN(C(=O)c1ccco1)c1nc(-c2ccc(Cl)cc2)cs1`, for which the EC50 in assay [1] is < 100 nM (active); in [2], > 60000 nM (not active); in the assay “cells”, 254 nM (active). Besides, the CC50 with Vero was > 25000 nM (active). The AC50 in assay [3] is 64100 nM (active); in assay [4] it was 17300 nM (active).
Consider `C[C@H](CO)N1C[C@H](C)[C@@H](CN(C)C(=O)Nc2cccc3ccccc23)Oc2ccc(NC(=O)Nc3ccc(C(F)(F)F)cc3)cc2C1=O`, for which the AC50 in assay [5] was 1370 nM (active); in assay [6] it was 1810 nM (active); in [7], 1440 nM (active); in assay [8], 1210 nM (active).
Turning to `COc1ccc2c3c(n(C)c2c1)[C@@H](CO)N(C(=O)C1CCCC1)CC31CCN(C(=O)Nc2cccc(F)c2)CC1`, the AC50 in assay [5] was 94.7 nM (active); in assay [6] it was 672 nM (active); in assay [7], 418 nM (active); in [8] it was 239 nM (active).
Consider `C[C@H](CO)N1C[C@H](C)[C@H](CN(C)C(=O)c2cc(Cl)cc(Cl)c2)OCc2ccccc2-c2c(n(C)c3ccccc23)C1=O`, for which the AC50 in assay [6] is 4110 nM (active); in [9] it was > 39000 nM (inactive).
As for `CC(C)CC#Cc1ccc([C@H]2[C@H](CO)N3CCCCN(S(=O)(=O)Cc4ccccc4)C[C@@H]23)cc1`, the results for the AC50 in assay [6] and in [9] were 4800 nM (active) and 9450 nM (active), respectively.
Consider `C[C@@H]1CN([C@H](C)CO)C(=O)c2ccccc2-c2ccccc2CO[C@@H]1CN(C)Cc1ccccc1C(F)(F)F`, for which the AC50 in assay [6] is 2790 nM (active); in assay [9], 15700 nM (active).

(Values after ChEMBL document CHEMBL1201862, “PubChem BioAssay data set” (2004).)
